Reference: patent US20240270692A1, “S(+) FORM OF 4-(2,4-DIFLUOROPHENYL)-2-(1H-INDOL-3-YL)-4-OXO-BUTANOIC ACID” (TOHOKU UNIVERSITY, priority 2021, published 2024)

Columns and labels:
immt-1/mitofilin mutant = assay: Evaluation of mitochondrial function: mitochondrial swelling in body wall muscle cells; format: in vivo, C. elegans; conditions: immt-1/mitofilin mutants, 10 μM, raised 5 days from L4 larval stage, compared with control DMSO
Procedure: It has been reported that in immt-1-deficient mutant C. elegans (hereinafter referred to as “immt-1/mitofilin mutant”), which is a C. elegans ortholog of the mitochondrial inner membrane protein (Mitofilin), mitochondria in muscle cells swell (see the literature “Journal of Cellular Physiology. 224 (2010) 748-756” and the literature “Molecular Biology of the Cell. 22 (2011) 831-841.”). Therefore, when three compounds (racemic form of MA5, S(+) form of MA5, or R(−) form of MA5) were administered to immt-1/mitofilin mutants, whether or not mitochondrial swelling was alleviated was analyzed.
As a comparative control, ccIs4251 wild-type C. elegans (obtained from CGC [Caenorhabditis Genetics Center]) was raised on a culture plate and analyzed in the same manner.

[1] = Metabolism test using human liver microsomes (LC/HRMS); format: in vitro ADME; conditions: incubated 37° C. for 1 hour
Procedure: The S(+) form or the R(−) form of MA5 was dissolved in acetonitrile (for LC-MS, manufactured by Kanto Chemical Co., Inc.) and each adjusted to 10 mM. 855 mg of sucrose (manufactured by FUJIFILM Wako Pure Chemical Corporation) was dissolved in 10 mL of water to prepare a 250 mM sucrose solution, and then by using this solution, a liquid containing 20 mg/mL human liver microsomes (8-donor-pool, manufactured by Sekisui XenoTech, LLC) was diluted 4-fold to prepare a 5 mg/mL human liver microsome suspension. In a 1 mL tube, 5 μL of three test solutions (sucrose solution containing 10 mM S(+) form of MA5, sucrose solution containing 10 mM R(−) form of MA5, or control Vehicle [sucrose solution]), 5 μL of NADPH Regenerating System Solution B (manufactured by Corning Incorporated), 100 μL of UGT Reaction Mix Solution B (manufactured by Corning Incorporated), and 275 μL of water were added to 50 μL of the human liver microsome suspension, and the resulting mixture was shaken for 30 seconds and preincubated at 37° C. for 5 minutes. After that, 25 μL of NADPH Regenerating System Solution A (manufactured by Corning Incorporated) and 40 μL of UGT Reaction Mix Solution A (manufactured by Corning Incorporated) were added, and the resulting mixture was shaken for 30 seconds and incubated at 37° C. for 1 hour. The reaction was stopped by adding 500 μL of an ice-cold acetonitrile solution containing 0.1% formic acid, and the resulting mixture was shaken for 30 seconds, sonicated for 10 minutes, and then centrifuged at 20,000×g at 4° C. for 10 minutes. 50 μL of the supernatant was collected in a fresh 1 mL tube, centrifugally concentrated at 2,000 rpm at room temperature (25 to 35° C.) for 30 minutes, and frozen at −80° C. […]
Q-Exactive (manufactured by Thermo Fisher Scientific Inc.) was used as an HRMS apparatus. […] Additional MS^2 data were measured in target MS^2 mode for both positive and negative ions. […]

SMILES | number of swelling mitochondria per body wall muscle cell (immt-1/mitofilin mutant) | proportion of body wall muscle cells in which 5 or more swelling mitochondria per body wall muscle cell were observed (immt-1/mitofilin mutant) | glucuronide conjugates (+C6H8O6 [+1.7 min, +2.6 min]) [1]
O=C(C[C@@H](C(=O)O)c1c[nH]c2ccccc12)c1ccc(F)cc1F [R(−) form of MA5, 4-(2,4-difluorophenyl)-2-(1H-indol-3-yl)-4-oxo-butanoic acid] | remained almost unchanged or only slightly decreased | remained almost unchanged or only slightly decreased | detected
O=C(C[C@H](C(=O)O)c1c[nH]c2ccccc12)c1ccc(F)cc1F [S(+) form of MA5, 4-(2,4-difluorophenyl)-2-(1H-indol-3-yl)-4-oxo-butanoic acid] | greatly decreased | greatly decreased | detected only at a level that was little or no different from the control
